Here are results for 21 molecules from patent US8859535B2, “Hydroxy substituted isoquinolinone derivatives” (Novartis AG, priority 2011, dated 2014).

Experiment [1] has as its target T1, human MDM2 protein (amino acids 2-188) (Homo sapiens, UniProt Q00987).
T1 construct: human MDM2 protein (amino acids 2-188); made in house
Description: p53-MDM2 TR-FRET assay (p53-MDM2 Assay 1). Type of experiment: binding. Particulars: 1.25 nM MDM2-biotinylated, 10 nM Cy5-p53 peptide; read-out: IC50 (μM) of p53-Hdm2 inhibition (TR-FRET) Assay 1. An outline of the steps: (§1)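 Peptide displacement read as 665/620 nm TR-FRET ratio (excitation 340 nm) after 15 min room temperature with 10 nM Cy5-p53 aa18-26, following 15 min preincubation of Eu-streptavidin (0.625 nM) with biotinylated MDM4 aa 2-185 (2.5 nM) or MDM2 aa 2-188 (1.25 nM); IC50 curve-fitted. MDM2 Assay 2: MDM2 and Eu-streptavidin each 0.1 nM.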
(In general: In TR-FRET formats the signal depends on donor and acceptor labels being close together.)

The target in experiment [2] is T2, human MDM4 protein (amino acids 2-185) (Homo sapiens, UniProt O15151).
T2 construct: human MDM4 protein (amino acids 2-185); made in house
T2 sequence (O15151 2-185): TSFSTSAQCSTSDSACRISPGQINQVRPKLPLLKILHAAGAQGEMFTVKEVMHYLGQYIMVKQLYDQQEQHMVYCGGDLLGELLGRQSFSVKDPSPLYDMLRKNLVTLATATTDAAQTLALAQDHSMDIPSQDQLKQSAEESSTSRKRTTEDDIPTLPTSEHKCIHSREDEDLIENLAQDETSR
Description: p53-MDM4 TR-FRET assay (p53-MDM4 Assay 1). Type of experiment: binding. Particulars: 2.5 nM MDM4-biotinylated, 10 nM Cy5-p53 peptide; read-out: IC50 (μM) of p53-Hdm4 inhibition (TR-FRET) Assay 1. An outline of the steps: as §1

Broadly, the IC50 is the point on the concentration scale where inhibition reaches its midpoint.

T1 sequence (Q00987 2-188): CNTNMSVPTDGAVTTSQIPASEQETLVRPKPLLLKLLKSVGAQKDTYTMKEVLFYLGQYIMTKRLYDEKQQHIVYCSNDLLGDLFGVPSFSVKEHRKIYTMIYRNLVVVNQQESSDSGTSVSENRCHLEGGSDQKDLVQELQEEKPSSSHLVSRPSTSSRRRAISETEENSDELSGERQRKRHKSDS

`COc1cc2c(cc1OC(C)C)[C@H](c1ccc(Cl)cc1)N(c1ccc(C(C)(O)C3CCNCC3)cc1)C(=O)C2` (stereo partly drawn) [Example 43, (S)-1-(4-Chloro-phenyl)-2-[4-(1-hydroxy-1-piperidin-4-yl-ethyl)-phenyl]-7-isopropoxy-6-methoxy-1,4-dihydro-2H-isoquinolin-3-one]: the IC50 in experiment [1] worked out at 0.0041 µM; in experiment [2], 4.99 µM.
Turning to `COc1cc2c(cc1OC(C)C)[C@H](c1ccc(Cl)cc1)N(c1ccc(C(C)(O)C3CCC(F)(F)CC3)cc1)C(=O)C2` (stereo partly drawn) [Example 45, (S)-1-(4-Chloro-phenyl)-2-{4-[1-(4,4-difluoro-cyclohexyl)-1-hydroxy-ethyl]-phenyl}-7-isopropoxy-6-methoxy-1,4-dihydro-2H-isoquinolin-3-one], the results for the IC50 in experiment [1] and in experiment [2] were 0.0089 µM and 17.4 µM, respectively.
In the same order, the values of `COc1cc2c(cc1OC(C)C)[C@H](c1ccc(Cl)cc1)N(c1ccc(C(C)(O)C3CCOC3)cc1)C(=O)C2` (stereo partly drawn) [Example 48, (S)-1-(4-Chloro-phenyl)-2-{4-[1-hydroxy-1-(tetrahydro-furan-3-yl)-ethyl]-phenyl}-7-isopropoxy-6-methoxy-1,4-dihydro-2H-isoquinolin-3-one] are 0.0432 µM and 44.5 µM.
In the same order, the values of `COc1cc2c(cc1OC(C)C)[C@H](c1ccc(Cl)cc1)N(c1ccc(C(C)(O)C3CCNC(=O)C3)cc1)C(=O)C2` (stereo partly drawn) [Example 49, (S)-1-(4-Chloro-phenyl)-2-{4-[1-hydroxy-1-(2-oxo-piperidin-4-yl)-ethyl]-phenyl}-7-isopropoxy-6-methoxy-1,4-dihydro-2H-isoquinolin-3-one] are 0.011 µM and 8.07 µM.
In the same order, the values of `COc1cc2c(cc1OC(C)C)[C@H](c1ccc(Cl)cc1)N(c1ccc(C3(O)CCCC3)cc1)C(=O)C2` [Example 50, (S)-1-(4-Chloro-phenyl)-2-[4-(1-hydroxy-cyclopentyl)-phenyl]-7-isopropoxy-6-methoxy-1,4-dihydro-2H-isoquinolin-3-one] are 0.246 µM and 90.2 µM.
As to `COc1cc2c(cc1OC(C)C)[C@H](c1ccc(Cl)cc1)N(c1ccc(C3(O)CCC3)cc1)C(=O)C2` [Example 51, (S)-1-(4-Chloro-phenyl)-2-[4-(1-hydroxy-cyclobutyl)-phenyl]-7-isopropoxy-6-methoxy-1,4-dihydro-2H-isoquinolin-3-one], the IC50 is 0.0731 µM in experiment [1] and 45.3 µM in experiment [2].
In the same order, the values of `COc1cc2c(cc1OC(C)C)[C@H](c1ccc(Cl)cc1)N(c1ccc(C3(O)CN(C(=O)OC(C)(C)C)C3)cc1)C(=O)C2` [Example 55, 3-{4-[(S)-1-(4-Chloro-phenyl)-7-isopropoxy-6-methoxy-3-oxo-3,4-dihydro-1H-isoquinolin-2-yl]-phenyl}-3-hydroxy-azetidine-1-carboxylic acid tert-butyl ester] are 0.0926 µM and 26.3 µM.
Turning to `CNC(=O)N1CC(O)(c2ccc(N3C(=O)Cc4cc(OC)c(OC(C)C)cc4[C@@H]3c3ccc(Cl)cc3)cc2)C1` [Example 60, 3-{4-[(S)-1-(4-Chloro-phenyl)-7-isopropoxy-6-methoxy-3-oxo-3,4-dihydro-1H-isoquinolin-2-yl]-phenyl}-3-hydroxy-azetidine-1-carboxylic acid methylamide], the IC50 amounted to 0.186 µM in experiment [1] and 88.4 µM in experiment [2].
For the molecule `COc1cc2c(cc1OC(C)C)[C@H](c1ccc(Cl)cc1)N(c1ccc(C3(O)CN(S(C)(=O)=O)C3)cc1)C(=O)C2` [Example 62, (S)-1-(4-Chloro-phenyl)-2-[4-(3-hydroxy-1-methanesulfonyl-azetidin-3-yl)-phenyl]-7-isopropoxy-6-methoxy-1,4-dihydro-2H-isoquinolin-3-one], the IC50 in experiment [1] turned out to be 0.342 µM; in experiment [2], 77 µM.
In the same order, the values of `COc1cc2c(cc1OC(C)C)[C@H](c1ccc(Cl)cc1)N(c1ccc(C(C)(O)C3CCCCC3)cc1)C(=O)C2` (stereo partly drawn) [Example 63, (S)-1-(4-Chloro-phenyl)-2-[4-(1-cyclohexyl-1-hydroxy-ethyl)-phenyl]-7-isopropoxy-6-methoxy-1,4-dihydro-2H-isoquinolin-3-one] are 0.0154 µM and 40.5 µM.
In the same order, the values of `COc1cc2c(cc1OC(C)C)[C@H](c1ccc(Cl)cc1)N(c1ccc(C(C)(O)C3CN(C(=O)OC(C)(C)C)C3)cc1)C(=O)C2` (stereo partly drawn) [Example 64, 3-(1-{4-[(S)-1-(4-Chloro-phenyl)-7-isopropoxy-6-methoxy-3-oxo-3,4-dihydro-1H-isoquinolin-2-yl]-phenyl}-1-hydroxy-ethyl)-azetidine-1-carboxylic acid tert-butyl ester] are 0.0072 µM and 10.6 µM.
With `COc1cc2c(cc1OC(C)C)[C@H](c1ccc(Cl)cc1)N(c1ccc(C(C)(O)C3CNC3)cc1)C(=O)C2` (stereo partly drawn) [Example 65, (S)-2-[4-(1-Azetidin-3-yl-1-hydroxy-ethyl)-phenyl]-1-(4-chloro-phenyl)-7-isopropoxy-6-methoxy-1,4-dihydro-2H-isoquinolin-3-one], the half-inhibitory concentration (IC50) in experiment [1] is 0.0423 µM; in experiment [2] it was 41.2 µM.
Regarding `COc1cc2c(cc1OC(C)C)[C@H](c1ccc(Cl)cc1)N(c1ccc(C(C)(O)C3CN(C(C)=O)C3)cc1)C(=O)C2` (stereo partly drawn) [Example 66, (S)-2-{4-[1-(1-Acetyl-azetidin-3-yl)-1-hydroxy-ethyl]-phenyl}-1-(4-chloro-phenyl)-7-isopropoxy-6-methoxy-1,4-dihydro-2H-isoquinolin-3-one], the values for the half-maximal inhibitory concentration (IC50) in experiment [1] and in experiment [2] were 0.0146 µM and 13.5 µM, respectively.
In the same order, the values of `CNC(=O)N1CC(C(C)(O)c2ccc(N3C(=O)Cc4cc(OC)c(OC(C)C)cc4[C@@H]3c3ccc(Cl)cc3)cc2)C1` (stereo partly drawn) [Example 67, 3-(1-{4-[(S)-1-(4-Chloro-phenyl)-7-isopropoxy-6-methoxy-3-oxo-3,4-dihydro-1H-isoquinolin-2-yl]-phenyl}-1-hydroxy-ethyl)-azetidine-1-carboxylic acid methylamide] are 0.0152 µM and 16.7 µM.
In the case of `COc1cc2c(cc1OC(C)C)[C@H](c1ccc(Cl)cc1)N(c1ccc(C(C)(O)C3CN(C(=O)N(C)C)C3)cc1)C(=O)C2` (stereo partly drawn) [Example 68, 3-(1-{4-[(S)-1-(4-Chloro-phenyl)-7-isopropoxy-6-methoxy-3-oxo-3,4-dihydro-1H-isoquinolin-2-yl]-phenyl}-1-hydroxy-ethyl)-azetidine-1-carboxylic acid dimethylamide], the figures for the IC50 in experiment [1] and in experiment [2] were 0.0152 µM and 15 µM, respectively.
In the same order, the values of `COc1cc2c(cc1OC(C)C)[C@H](c1ccc(Cl)cc1)N(c1ccc(C(C)(O)C3CN(CCC(F)(F)F)C3)cc1)C(=O)C2` (stereo partly drawn) [Example 69, (S)-1-(4-Chloro-phenyl)-2-(4-{1-hydroxy-1-[1-(3,3,3-trifluoro-propyl)-azetidin-3-yl]-ethyl}-phenyl)-7-isopropoxy-6-methoxy-1,4-dihydro-2H-isoquinolin-3-one] are 0.0363 µM and 40.5 µM.
On to `COc1cc2c(cc1OC(C)C)[C@H](c1ccc(Cl)cc1)N(c1ccc(C(C)(O)C3CN(C)C3)cc1)C(=O)C2` (stereo partly drawn) [Example 70, (S)-1-(4-Chloro-phenyl)-2-{4-[1-hydroxy-1-(1-methyl-azetidin-3-yl)-ethyl]-phenyl}-7-isopropoxy-6-methoxy-1,4-dihydro-2H-isoquinolin-3-one], for which the IC50 is 0.0547 µM in experiment [1] and 60.1 µM in experiment [2].
On to `CCN1CC(C(C)(O)c2ccc(N3C(=O)Cc4cc(OC)c(OC(C)C)cc4[C@@H]3c3ccc(Cl)cc3)cc2)C1` (stereo partly drawn) [Example 71, (S)-1-(4-Chloro-phenyl)-2-{4-[1-(1-ethyl-azetidin-3-yl)-1-hydroxy-ethyl]-phenyl}-7-isopropoxy-6-methoxy-1,4-dihydro-2H-isoquinolin-3-one], for which the results for the IC50 in experiment [1] and in experiment [2] were 0.026 µM and 30.1 µM, respectively.
In the case of `COc1cc2c(cc1OC(C)C)[C@H](c1ccc(Cl)cc1)N(c1ccc(C(C)(O)C3CN(C(C)C)C3)cc1)C(=O)C2` (stereo partly drawn) [Example 72, (S)-1-(4-Chloro-phenyl)-2-{4-[1-hydroxy-1-(1-isopropyl-azetidin-3-yl)-ethyl]-phenyl}-7-isopropoxy-6-methoxy-1,4-dihydro-2H-isoquinolin-3-one], the figures for the concentration for half-maximal inhibition (IC50) in experiment [1] and in experiment [2] were 0.0234 µM and 18.4 µM, respectively.
In the same order, the values of `COc1cc2c(cc1OC(C)C)[C@H](c1ccc(Cl)cc1)N(c1ccc(C(C)(O)C3CN(S(C)(=O)=O)C3)cc1)C(=O)C2` (stereo partly drawn) [Example 73, (S)-1-(4-Chloro-phenyl)-2-{4-[1-hydroxy-1-(1-methanesulfonyl-azetidin-3-yl)-ethyl]-phenyl}-7-isopropoxy-6-methoxy-1,4-dihydro-2H-isoquinolin-3-one] are 0.0179 µM and 18.9 µM.
As for `COc1cc2c(cc1OC(C)C)[C@H](c1ccc(Cl)cc1)N(c1ccc(C(C)(O)C3CN(CC(F)(F)F)C3)cc1)C(=O)C2` (stereo partly drawn) [Example 74, (S)-1-(4-Chloro-phenyl)-2-(4-{1-hydroxy-1-[1-(2,2,2-trifluoro-ethyl)-azetidin-3-yl]-ethyl}-phenyl)-7-isopropoxy-6-methoxy-1,4-dihydro-2H-isoquinolin-3-one], the IC50 stood at 0.0179 µM in experiment [1] and 18 µM in experiment [2].
